Tests used:
Assay in all cases: KINOMEscan competition binding
[1] = molecular target: KIT-autoinhibited (Homo sapiens, UniProt P10721); settings: read-out: %Inh KIT-autoinhibited
[2] = molecular target: ERK3 (Homo sapiens, UniProt Q16659); settings: read-out: %Inh ERK3
[3] = molecular target: T1, DCAMKL3 (Homo sapiens, UniProt Q9C098); settings: read-out: %Inh DCAMKL3
T1 sequence (Q9C098 1-648): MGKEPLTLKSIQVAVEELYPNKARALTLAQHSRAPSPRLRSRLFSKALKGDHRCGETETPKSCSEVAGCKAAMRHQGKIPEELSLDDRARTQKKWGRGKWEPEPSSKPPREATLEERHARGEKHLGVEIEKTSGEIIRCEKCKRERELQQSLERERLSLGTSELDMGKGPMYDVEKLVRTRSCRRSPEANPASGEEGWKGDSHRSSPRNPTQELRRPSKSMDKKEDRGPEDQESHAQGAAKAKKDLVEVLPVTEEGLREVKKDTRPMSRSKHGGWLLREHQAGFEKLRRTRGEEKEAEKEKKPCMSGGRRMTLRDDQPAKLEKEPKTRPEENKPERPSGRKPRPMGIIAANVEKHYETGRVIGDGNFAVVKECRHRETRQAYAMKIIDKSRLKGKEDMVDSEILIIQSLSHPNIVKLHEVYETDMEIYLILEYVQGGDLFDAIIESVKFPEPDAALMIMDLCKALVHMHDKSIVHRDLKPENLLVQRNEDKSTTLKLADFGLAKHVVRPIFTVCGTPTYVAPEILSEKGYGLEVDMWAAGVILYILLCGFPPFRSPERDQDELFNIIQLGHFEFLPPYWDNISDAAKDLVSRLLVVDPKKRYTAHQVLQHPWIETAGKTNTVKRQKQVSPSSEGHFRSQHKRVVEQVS

[4] = molecular target: T2, GAK (Homo sapiens, UniProt O14976); settings: read-out: %Inh GAK
T2 sequence (O14976 1-1311): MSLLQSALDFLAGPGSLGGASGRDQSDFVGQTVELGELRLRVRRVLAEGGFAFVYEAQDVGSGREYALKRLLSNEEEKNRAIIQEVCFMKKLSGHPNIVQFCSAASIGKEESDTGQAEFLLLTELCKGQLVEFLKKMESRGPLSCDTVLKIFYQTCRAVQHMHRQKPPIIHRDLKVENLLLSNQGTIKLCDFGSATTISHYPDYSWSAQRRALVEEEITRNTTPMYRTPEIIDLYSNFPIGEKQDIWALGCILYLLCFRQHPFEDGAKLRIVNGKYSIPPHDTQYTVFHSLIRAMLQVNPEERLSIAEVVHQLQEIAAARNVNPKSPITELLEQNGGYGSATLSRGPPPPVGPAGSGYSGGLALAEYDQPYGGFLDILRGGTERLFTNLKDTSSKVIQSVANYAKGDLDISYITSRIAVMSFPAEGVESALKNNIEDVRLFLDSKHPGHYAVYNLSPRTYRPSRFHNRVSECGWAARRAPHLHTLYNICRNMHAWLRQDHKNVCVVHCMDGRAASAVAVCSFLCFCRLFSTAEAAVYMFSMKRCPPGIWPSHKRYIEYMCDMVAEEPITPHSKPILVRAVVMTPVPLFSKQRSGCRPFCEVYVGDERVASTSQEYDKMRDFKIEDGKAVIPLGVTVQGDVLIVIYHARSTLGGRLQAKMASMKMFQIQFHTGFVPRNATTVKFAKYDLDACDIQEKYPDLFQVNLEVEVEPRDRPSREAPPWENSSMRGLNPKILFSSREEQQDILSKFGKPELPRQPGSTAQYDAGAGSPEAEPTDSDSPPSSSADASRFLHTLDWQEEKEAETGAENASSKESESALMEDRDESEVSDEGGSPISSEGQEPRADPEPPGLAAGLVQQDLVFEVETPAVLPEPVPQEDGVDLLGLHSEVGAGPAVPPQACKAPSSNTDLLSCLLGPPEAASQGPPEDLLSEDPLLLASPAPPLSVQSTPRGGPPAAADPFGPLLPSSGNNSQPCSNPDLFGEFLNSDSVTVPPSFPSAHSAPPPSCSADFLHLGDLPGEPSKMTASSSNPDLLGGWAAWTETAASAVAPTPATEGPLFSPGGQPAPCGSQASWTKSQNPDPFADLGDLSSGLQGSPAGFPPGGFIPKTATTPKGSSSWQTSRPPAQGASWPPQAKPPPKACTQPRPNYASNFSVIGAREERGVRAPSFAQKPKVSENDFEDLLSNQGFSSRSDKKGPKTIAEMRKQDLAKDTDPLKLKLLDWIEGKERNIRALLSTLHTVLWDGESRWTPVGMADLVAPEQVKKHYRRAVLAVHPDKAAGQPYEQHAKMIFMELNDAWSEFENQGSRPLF

[5] = molecular target: T3, CSNK1A1L (Homo sapiens, UniProt Q8N752); settings: read-out: %Inh CSNK1A1L
T3 sequence (Q8N752 1-337): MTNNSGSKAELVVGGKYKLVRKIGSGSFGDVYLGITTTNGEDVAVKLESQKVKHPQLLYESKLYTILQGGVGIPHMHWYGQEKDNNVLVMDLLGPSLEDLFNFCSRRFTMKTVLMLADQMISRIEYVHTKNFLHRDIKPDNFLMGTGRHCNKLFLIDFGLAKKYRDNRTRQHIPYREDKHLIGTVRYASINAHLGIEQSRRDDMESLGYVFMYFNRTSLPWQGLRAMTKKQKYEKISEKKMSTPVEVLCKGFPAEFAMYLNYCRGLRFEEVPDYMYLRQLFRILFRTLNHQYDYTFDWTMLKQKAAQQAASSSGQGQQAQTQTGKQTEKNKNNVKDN

[6] = molecular target: INSRR (Homo sapiens, UniProt P14616); settings: read-out: %Inh INSRR
INSRR, sequence (P14616 27-1297): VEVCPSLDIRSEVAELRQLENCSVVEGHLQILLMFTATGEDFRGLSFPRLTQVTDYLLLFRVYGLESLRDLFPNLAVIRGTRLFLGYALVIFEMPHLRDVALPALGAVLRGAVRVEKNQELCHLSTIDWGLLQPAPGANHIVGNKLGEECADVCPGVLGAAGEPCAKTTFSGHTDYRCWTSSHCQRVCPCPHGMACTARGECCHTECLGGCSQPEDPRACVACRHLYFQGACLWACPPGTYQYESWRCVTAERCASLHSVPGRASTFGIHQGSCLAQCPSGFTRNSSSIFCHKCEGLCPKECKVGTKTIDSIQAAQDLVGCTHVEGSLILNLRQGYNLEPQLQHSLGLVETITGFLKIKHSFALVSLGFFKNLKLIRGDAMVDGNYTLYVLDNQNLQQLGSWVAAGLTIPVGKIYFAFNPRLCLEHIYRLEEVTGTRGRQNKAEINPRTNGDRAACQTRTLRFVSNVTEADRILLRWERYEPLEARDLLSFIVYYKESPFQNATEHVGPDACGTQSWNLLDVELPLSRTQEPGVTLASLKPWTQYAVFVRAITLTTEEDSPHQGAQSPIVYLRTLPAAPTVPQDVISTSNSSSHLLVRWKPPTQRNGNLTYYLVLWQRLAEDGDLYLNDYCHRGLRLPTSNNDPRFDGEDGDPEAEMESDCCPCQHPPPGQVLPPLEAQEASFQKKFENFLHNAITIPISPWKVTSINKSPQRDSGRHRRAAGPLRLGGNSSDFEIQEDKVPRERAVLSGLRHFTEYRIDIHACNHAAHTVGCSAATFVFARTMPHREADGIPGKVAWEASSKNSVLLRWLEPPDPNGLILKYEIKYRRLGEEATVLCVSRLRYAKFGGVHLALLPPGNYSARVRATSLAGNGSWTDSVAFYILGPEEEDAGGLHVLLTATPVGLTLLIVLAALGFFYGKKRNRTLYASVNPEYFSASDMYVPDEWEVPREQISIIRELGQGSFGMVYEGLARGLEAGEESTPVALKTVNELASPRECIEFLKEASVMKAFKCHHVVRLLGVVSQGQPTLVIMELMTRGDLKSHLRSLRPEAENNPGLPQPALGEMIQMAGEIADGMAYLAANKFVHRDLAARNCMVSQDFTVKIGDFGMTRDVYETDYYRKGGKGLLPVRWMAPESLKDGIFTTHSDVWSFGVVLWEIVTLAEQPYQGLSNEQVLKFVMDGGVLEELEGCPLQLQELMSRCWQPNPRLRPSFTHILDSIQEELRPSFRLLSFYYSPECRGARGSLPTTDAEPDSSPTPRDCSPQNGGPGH

KIT-autoinhibited, sequence (P10721 546-976 limits assumed): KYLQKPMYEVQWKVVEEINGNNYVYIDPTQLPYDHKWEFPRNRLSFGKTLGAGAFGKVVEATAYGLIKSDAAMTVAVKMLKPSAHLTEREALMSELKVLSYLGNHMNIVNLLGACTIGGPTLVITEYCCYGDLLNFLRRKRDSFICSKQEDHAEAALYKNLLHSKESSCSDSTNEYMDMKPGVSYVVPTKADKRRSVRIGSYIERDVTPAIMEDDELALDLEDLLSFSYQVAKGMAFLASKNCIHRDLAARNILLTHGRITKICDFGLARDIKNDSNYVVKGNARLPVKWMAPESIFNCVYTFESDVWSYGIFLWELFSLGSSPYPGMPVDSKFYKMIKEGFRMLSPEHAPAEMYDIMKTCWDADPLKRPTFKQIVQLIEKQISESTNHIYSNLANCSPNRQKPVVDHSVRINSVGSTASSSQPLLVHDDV
ERK3, sequence (Q16659 whole entry): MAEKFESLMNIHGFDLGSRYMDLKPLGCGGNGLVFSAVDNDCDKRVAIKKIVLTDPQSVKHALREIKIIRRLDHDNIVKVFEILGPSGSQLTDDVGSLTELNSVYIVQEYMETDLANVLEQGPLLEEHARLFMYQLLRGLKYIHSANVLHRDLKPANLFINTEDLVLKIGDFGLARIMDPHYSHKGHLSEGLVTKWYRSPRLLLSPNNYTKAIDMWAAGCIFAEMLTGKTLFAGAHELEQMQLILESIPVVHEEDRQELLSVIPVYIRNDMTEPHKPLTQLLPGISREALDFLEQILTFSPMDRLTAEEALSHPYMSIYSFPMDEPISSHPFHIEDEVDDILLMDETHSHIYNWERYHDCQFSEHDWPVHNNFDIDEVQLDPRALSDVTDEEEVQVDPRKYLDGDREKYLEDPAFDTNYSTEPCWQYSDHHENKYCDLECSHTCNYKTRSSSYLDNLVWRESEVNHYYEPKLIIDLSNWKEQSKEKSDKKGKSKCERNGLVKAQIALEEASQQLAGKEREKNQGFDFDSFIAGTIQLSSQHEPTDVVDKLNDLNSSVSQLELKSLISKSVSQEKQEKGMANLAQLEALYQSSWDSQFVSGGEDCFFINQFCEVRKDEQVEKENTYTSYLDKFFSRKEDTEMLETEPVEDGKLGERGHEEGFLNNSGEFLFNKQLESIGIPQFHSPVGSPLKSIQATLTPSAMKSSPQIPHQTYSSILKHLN

SMILES	inhibition at 1 µM [1] [%]	inhibition at 1 µM [2] [%]	inhibition at 1 µM [3] [%]	inhibition at 1 µM [4] [%]	inhibition at 1 µM [5] [%]	inhibition at 1 µM [6] [%]
CS(=O)(=O)Cc1ccc(Nc2nccc(-c3c(-c4cccc(NC(=O)C5CCCCC5)c4)nn4ncccc34)n2)cc1 [UNC10225159A]	14	0	0	14	0	20
Cn1cc(-c2cnc(N)c3c(-c4ccc5c(c4)CCN5C(=O)Cc4ccccc4)csc23)cn1 [UNC10225012A]	32	0	5	11	0	13
O=c1cc(N2CCOCC2)nc2n(Cc3cccc(Cl)c3Cl)c(C3CC3)nn12 [UNC10225469A]	15	0	17	11	0	0
COc1cccc(OC)c1C(=O)Nc1cccc(-c2nn3ccccc3c2-c2ccnc(Nc3cccc(F)c3)n2)c1 [UNC10225310A]	11	1	16	6	0	0
Cc1ccc(NC(=O)Nc2cccc(C(F)(F)F)c2)cc1 [UNC10225187A]	3	0	13	0	0	0
